Common to all, as to type: cell-based
One experiment concerns Hep3B-luc. The experiment can be described thus: CellTiter-Glo cell viability, liver cell lines, 8 days. As to conditions: full growth media. The procedure:
(§1) The objective of this study is to investigate the effect of Compound 1 on cell viability of various types of liver cancer. Ten (10) different liver cancer cell lines were employed in the study. Each liver cell line shown in Table 4 was treated with Compound 1, pentamidine, as reference control, a standard of care (cisplatin) and culture medium contains 0.2% [v/v] DMSO vehicle control and IC50 values were obtained as described above. The raw data values from the CellTiter-Glo™ cell viability assay expressed in relative luminescence units were normalized to the vehicle for each individual plate, and any reduction in luminescence indicated a decrease in viability (%). The data was analyzed in GraphPad PRISM using a non-linear sigmoidal plot with variable slope (asymmetric four-point linear regression), and an IC50 value for each compound was generated. The experiment tested pentamidine, compound 1, and standard-of-care control Cisplatin in full growth media for 8 days. Cells were initially treated with the test compounds on Day 0, and the cells were then replenished with fresh compound dilutions on Day 3. Pentamidine, Compound 1, and cisplatin were tested at 9 concentration points; 100, 33.33, 11.11, 3.70, 1.23, 0.41, 0.14, 0.05, and 0.02 μM (final DMSO concentration=0.5%). In particular, the IC50 values of pentamidine and Compound 1 were 0.8 and 0.6 μM in Hep3B-luc, respectively.
The experiment tested pentamidine, Compound 1, and standard of care control, cisplatin, in full growth media for 8 days. Hep-3b cells were initially treated with the test compounds on Day 0, and the cells were then replenished with fresh compound dilutions on Day 3. […] The raw data values from the CellTiter-Glo™ cell viability assay expressed in relative luminescence units were normalized to the vehicle for each individual plate, and any reduction in luminescence indicated a decrease in viability (%). The data was analyzed in GraphPad PRISM using a non-linear sigmoidal plot with variable slope (asymmetric four-point linear regression), and an IC50 value for each compound was generated. […]

Another experiment concerns DU4475. In words: CellTiter-Glo cytotoxicity, cancer cell line panel / breast cancer study. As to conditions: DU4475, Breast carcinoma. The procedure:
(§2) The objective of this study is to investigate potential cell killing effect of Compounds 1-15 on 3 cancer cell lines. 50% inhibition concentration (IC50) was determined for these compounds in various cancer cell lines using CellTiter-Glo™ luminescent cell viability assay at different compound concentrations. Each cell line (e.g., NCI-H209; NCI-H69; and SW1271) was treated with Compounds 1-15 and culture medium contains 0.2% [v/v] DMSO vehicle control. All the cells were cultured in the media supplemented with 10-20% fetal bovine serum at 37° C., 5% CO2 and 95% humidity.
(§3) The objective of this study is to investigate the effect of Compound 1 on cytotoxicity against 61 different types of cancer cell lines. IC50 were values were obtained using CellTiter-Glo™ as described above. Each cell line shown in Table 3 was treated with Compound 1, a standard chemotherapy drug, cisplatin, as reference control and culture medium contains 0.2% [v/v] DMSO vehicle control. All cancer cell lines were cultured in media supplemented with 10-20% fetal bovine serum at 37° C., 5% CO2 and 95% humidity.
(§4) The objective of this study is to investigate the effect of Compound 1 on cell viability of various types of breast cancer. Four different breast cancer cell lines were employed in the study. Each cell line shown in Table 5 was treated with Compound 1 and standard of care (cisplatin) and culture medium contains 0.2% [v/v] DMSO vehicle control and IC50 values were obtained as described above. The raw data values from the CellTiter-Glo™ cell viability assay expressed in relative luminescence units were normalized to the vehicle for each individual plate, and any reduction in luminescence indicated a decrease in viability (%). The data was analyzed in GraphPad PRISM using a non-linear sigmoidal plot with variable slope (asymmetric four-point linear regression), and an IC50 value for each compound was generated. The experiment tested pentamidine, compound 1, and standard-of-care control Cisplatin in full growth media for 8 days. Cells were initially treated with the test compounds on Day 0, and the cells were then replenished with fresh compound dilutions on Day 3. Pentamidine, Compound 1, and cisplatin were tested at 9 concentration points; 100, 33.33, 11.11, 3.70, 1.23, 0.41, 0.14, 0.05, and 0.02 μM (final DMSO concentration=0.5%).
On the technique in general: In ATP-based viability assays light output follows the ATP content of the culture.

Another experiment relates to ZR-75-1. The description is as above. As to conditions: ZR-75-1, Invasive ductal carcinoma. As to the method:
as §2, §3, §4

The subject of the next experiment is HCC1954. Described as above. As to conditions: HCC1954, Ductal breast carcinoma. The procedure: as §2, §3, §4
For another experiment, the system named is HUH1. In words: CellTiter-Glo cell viability, liver cell lines, 8 days. The settings on record: Homo sapiens, HuH-1, 192 h; HUH1, 8 days. As to the method: as §1
Another experiment concerns Hep3B. The description is as above. The settings on record: Homo sapiens, 192 h. The procedure:
as §1

The test system of another experiment is MHCC97H. The description is as above. The settings on record: Homo sapiens, 192 h. As to the method:
as §1

Another experiment concerns SK-HEP-1. The experiment is described as above. As to conditions: Homo sapiens. As to the method: as §1
A further experiment concerns HCCLM3. The experiment is described as above. As to conditions: Homo sapiens, 192 h; HCCLM3, 8 days. The procedure:
as §1

For the next experiment, the system named is HEP3B2.7-1. The description is as above. As to conditions: HEP3B2.7-1, Table 4. As to the method:
as §1

For a further experiment, the system named is HUH7. The description is as above. As to conditions: Homo sapiens, Huh-7, 192 h; HUH7, 8 days. The procedure: as §1
Another experiment concerns HepG2. Described as above. As to conditions: Homo sapiens, 192 h; HepG2, 8 days. As to the method:
as §1

Regarding `N.N.[Cl][Pt][Cl]` [Cisplatin, cisplatin, reference compound], the IC50 (as a rule, the concentration needed to halve the response being measured) in the experiment on Hep3B-luc turned out to be 5100 nM; in the experiment on DU4475, 600 nM; in the experiment with ZR-75-1 it was 1020 nM; in the experiment on HCC1954, 770 nM.
On to `N=C(N)c1ccc(OCCCCCOc2ccc(C(=N)N)cc2)cc1` [Pentamidine, 1,5-bis(4-amidinophenoxy)pentane], for which the IC50 in the experiment on Hep3B-luc (Hep 3B-Luc, 192 h) was 800 nM; with HUH1 it was 1790 nM; with Hep3B it was 160 nM; in the experiment with MHCC97H, 4260 nM; in the experiment with SK-HEP-1 (SK-HEP1, SK-HEP-1, first listing in Table 4), 1450 nM; in the experiment with SK-HEP-1 (SK-HEP1, SK-HEP-1, second listing in Table 4), 720 nM. The IC50 came to 6900 nM in the experiment on HCCLM3, 280 nM with HEP3B2.7-1, 680 nM with HUH7 and 290 nM in the experiment on HepG2.
